Eight compounds from US4173641A, “Di-O-n-alkyl glycerol derivatives as immune stimulants” (priority 1978, dated 1979) can be followed below.

Several values for one entry are separate records, joined by “and”; a condition that tells them apart may be missing. Equal entries are not always repeated. Structures can show the parent of a compound that is named as a salt. Where two headings read alike, the source gives them in different places.

Data set [1] relates to S-180J cells (sarcoma 180J). As to the kind of experiment: Sarcoma 180J model for assessment of tumor rejection. It counts as in vivo, female CD-1 mice. As to conditions: for number of 40 day survivors: six mice per group. Here is the method:
Six female CD-1 mice (20-25 g) per group received 10^6 S-180J cells which were 5 to 8 days old by intraperitoneal administration. On the day following tumor innoculation the mice received 0.1 ml of the test compound formulated in the fat emulsion vehicle Intralipid (Cutter Laboratories) at the desired dose and were then observed until death or 40 days, whichever occurs first. Results are expressed as increased percent life span (%ILS), defined as follows: [formula] Results obtained by the above test procedure were as follows:
Results of the above test obtained with (1-hydroxy-2-alkylamino ethyl)-benzyloxy analogs of this invention formulated in Tween 80-glycerol-water are shown in Table 2.
(Numbers in parentheses in Tables 1 and 2 above are the number

A short description of data set [2]: in vivo. To be noted: read-out: therapeutic index. Also on record: species or system mice and rats. From the text:
The compounds may be used in pharmaceutical preparations containing the compound or a pharmaceutically acceptable salt thereof in combination with a pharmaceutically acceptable carrier or diluent. A particularly preferred type of pharmaceutical carrier for this purpose is a sterile fat or lipid emulsion vehicle. […] Such advantages have been reported for other compounds used with such fat emulsion vehicles, see for example Fortner, et al., American Journal of Hospital Pharmacy, 32, 502 (1975) and Jeppsson, et al., First International Conference on Pharmaceutical technology, Faculty of Pharmacy, Paris-Sud, June 1977. An example of a particularly suitable vehicle is Intralipid (Cutter Laboratories, Berkeley, California), a 10% fat emulsion, based on soybean oil. However, other similar vehicles would be suitable and may be readily prepared by those skilled in the art.

In data set [3] the test system is L 1210 cells / peritoneal macrophages. In words: Assessment of peritoneal macrophage activation (inhibition of DNA synthesis in L 1210 cells). As to conditions: Mus musculus, L1210, ip, intraperitoneal, macrophages harvested 72 hours later. It counts as in vivo, mice. Here is the method: (§1) Mice were injected intraperitoneally with saline or the test compound. Macrophages were harvested 72 hours later by intraperitoneal injection of 3 ml 8% fetal calf serum-- 92% RPMI 1640 medium (Grand Island Biological Co., N.Y.) (164092 FCS8) plus 5 units/ml of heparin, the temperature of all media being kept at 37° C., lavaged 1 to 2 minutes, opened and all peritoneal fluid drawn off with a sterile, siliconized pipet into a 50 ml plastic tube kept in ice. The macrophages were counted using a hemocytometer and adjusted to a concentration of 1.5×10^6 /ml with 164092 FCS8. The cells were then placed in multiwell plates, 1.5×10^6 cells per well, and incubated for 1 to 2 hours at 37° C. in a 5% carbon dioxide atmosphere. The supernate was discarded and the cells were washed once with media, the macrophages adhering to the bottom of the wells. L 1210 cells (harvested from ascites of DBA mice approximately 5 days after innoculation) in 164092 FCS8 were then added, 1 ml of 1×10^5 cells/ml to each well and incubated at 37° C. for 24 to 30 hours in a 5% carbon dioxide atmosphere. The cells were then pulsed with ^3 H-Tdr (1.0μCi/ml; Amersham/Searles) for 6 hours at 37° C., the supernate drawn off using a cell harvester: Reeve-Angel filter, and washed five times with saline. The filter discs were allowed to dry and placed in scintillation vials with LSC scintillation fluid (5.0 g PPO and 0.2 g POPOP/liter toluene; Yorktown Research). Counting was done for 2 minutes using a Beekman LS-250 β-counter.

In data set [4] the test system is L1210 cells / peripheral blood monocytes. As to the kind of experiment: Assessment of peripheral blood monocyte activation (inhibition of DNA synthesis in L1210 cells). To be noted: Rattus norvegicus, intravenous, monocytes harvested 72 hours later, Effector:Target ratio 15:1. Type of data set: in vivo, rats. The procedure: as §1, with “The cells were then pulsed with ^3 H-Tdr (1.0μCi/ml; Amersham/Searles) for 6 hours at 37° C., the supernate drawn off using a cell harvester: Reeve-Angel filter, and washed five times with saline. The filter discs were allowed to dry and placed in scintillation vials with LSC scintillation fluid (5.0 g PPO and 0.2 g POPOP/liter toluene; Yorktown Research). Counting was done for 2 minutes using a Beekman LS-250 β-counter.” left out
Rats were injected intravenously with the test compound, or with saline for control animals. […] Following the procedure described in Example 13 the cells were pulsed with ^3 H-Tdr and counted with a scintillation counter.

Data set [5] relates to Influenza virus. As to the kind of experiment: Vaccine adjuvanticity - hemagglutination inhibition test. It counts as in vivo, Hartley female guinea pigs (vaccinated); influenza virus. As to conditions: for Hemagglutination Titer: compound (5 mg) with Fluogen, individual animal.
The mark [6] stands for this setting: 5 mg/kg, Tween 80-glycerol-water.
[7] abbreviates: 15 mg/kg, Tween 80-glycerol-water.
[8] abbreviates: 50 mg/kg, Tween 80-glycerol-water.
Where [9] appears, read: 0.25 mg/kg, fat emulsion vehicle Intralipid.
[10] abbreviates: 1 mg/kg, fat emulsion vehicle Intralipid.
Setting [11] is: 4 mg/kg, fat emulsion vehicle Intralipid.
The mark [12] stands for this setting: 16 mg/kg, fat emulsion vehicle Intralipid.

Take `CCCCCCCCCCCCCCCCOCC(COCCCCCCCCCCCCCCCC)OCc1cccc(C(O)CNC(C)(C)C)c1` (stereo not drawn) [C(CH3)3 1,3]: the “%ILS (increased percent life span)” value in data set [1] (setting [6]) amounted to 159%; in data set [1] (setting [7]), 171%; in data set [1] (setting [8]), 157%. Also, the “number of 40 day survivors” value in data set [1] (setting [6]) is 1; in data set [1] (setting [7]), 3; in data set [1] (setting [8]), 2.
As for `CCCCCCCCCCCCCCCCOCC(COCc1cccc(C(O)CNC(C)(C)C)c1)OCCCCCCCCCCCCCCCC.Cl` (stereo not drawn) [C(CH3)3 2,3, 1,2-Di-O-(n-hexadecyl)-3-O-[3-(1-hydroxy-2-t-butylaminoethyl)benzyl]-glycerol hydrochloride], the “%ILS (increased percent life span)” value was 166% in data set [1] (setting [6]), 181% in data set [1] (setting [7]) and 182% in data set [1] (setting [8]). For the same compound, the results for the “number of 40 day survivors” value in data set [1] (setting [6]), in data set [1] (setting [7]) and in data set [1] (setting [8]) were 2, 4 and 4, respectively.
As for `CCCCCCCCCCCCCCCCOCC(COCc1cccc(C(O)CNC(C)C)c1)OCCCCCCCCCCCCCCCC` (stereo not drawn) [CH(CH3)2 2,3], the “%ILS (increased percent life span)” value was determined as 174% in data set [1] (setting [6]), 135% in data set [1] (setting [7]) and 147% in data set [1] (setting [8]). Moreover, the “number of 40 day survivors” value in data set [1] (setting [6]) and in data set [1] (setting [8]) was 1 throughout.
As to `CCCCCCCCOCC(CN1CCC(CN)(c2ccccc2)CC1)OCCCCCCCC` (stereo not drawn) [n-C8 H17], the “%ILS (increased percent life span)” value in data set [1] (setting [9]) was 113%; in data set [1] (setting [10]) it was 109%; in data set [1] (setting [11]) it was 154%; in data set [1] (setting [12]), 192%. The “number of 40 day survivors” value in data set [1] (4 mg/kg, Intralipid) was 1; in data set [1] (16 mg/kg, Intralipid), 4. Also, the selectivity ratio in data set [2] (Tween 80-glycerol-water formulations) is around 3; in data set [2] (sterile fat or lipid emulsion vehicle, parenteral and intravenous), 15 to 25.
What is called inhibition is the share of the control response that was lost under treatment. For the compound `CCCCCCCCCCOCC(CN1CCC(CN)(c2ccccc2)CC1)OCCCCCCCCCC` (stereo not drawn) [n-C10 H21, 4-Aminomethyl-1-[2,3-(di-n-decyloxy)-n-propyl]-4-phenylpiperidine], the “%ILS (increased percent life span)” value in data set [1] (setting [9]) came to 127%; in data set [1] (setting [10]), 139%; in data set [1] (setting [11]), 110%; in data set [1] (setting [12]), 108%. For the same compound, the “number of 40 day survivors” value in data set [1] (1 mg/kg, Intralipid) is listed as 1. In addition, testing at 0.313 mg/kg in data set [3] (0.313 mg/kg) gave an inhibition of 56%. In data set [3] (0.625 mg/kg), this compound yielded an inhibition at 0.625 mg/kg of 94%. For the same compound, the results for the inhibition at 1.25 mg/kg in data set [3] (1.25 mg/kg) and in data set [4] were 76% and 80%, respectively. Also, the “Hemagglutination Titer” value was 10 and 0 in data set [5] (day 15 after primary sensitization); 10 and 40 and 20 and 0 in data set [5] (day 30 after primary sensitization (rechallenge day)); 80 and 640 and 10 and 40 in data set [5] (day 44 after primary sensitization, rechallenged at 30 days); 1280 and 2560 and 160 and 20 and 10 in data set [5] (day 65 after primary sensitization, rechallenged at 30 days). Besides, the “hemagglutination titer observed after rechallenge (adjuvant activity)” value in data set [5] (compound with Fluogen, in words) is “higher hemagglutination titer observed after rechallenge”.
Consider `CCCCCCCCCCCCCCOCC(CN1CCC(CN)(c2ccccc2)CC1)OCCCCCCCCCCCCCC` (stereo not drawn) [n-C14 H29], for which, in data set [1] (0.25 mg/kg, Intralipid), the “number of 40 day survivors” value came out at 1. For the same compound, the “%ILS (increased percent life span)” value in data set [1] (setting [9]) is reported as 129%; in data set [1] (setting [10]), 116%; in data set [1] (setting [11]), 133%; in data set [1] (setting [12]), 109%. The same compound came in with an inhibition at 25 mg/kg in data set [3] (25 mg/kg) of 90%.
For `CCCCCCCCCCCCCCCCOCC(CN1CCC(CN)(c2ccccc2)CC1)OCCCCCCCCCCCCCCCC` (stereo not drawn) [n-C16 H33, 4-Aminomethyl-1-[2,3-(di-n-hexadecyloxy)-n-propyl]-4-phenylpiperidine Dihydrochloride], the “%ILS (increased percent life span)” value in data set [1] (setting [9]) is 110%; in data set [1] (setting [10]), 105%; in data set [1] (setting [11]) it was 104%; in data set [1] (setting [12]), 127%.
For the compound `CCCCCCCCCCCCCCCCCCOCC(CN1CCC(CN)(c2ccccc2)CC1)OCCCCCCCCCCCCCCCCCC` (stereo not drawn) [n-C18 H37], the “%ILS (increased percent life span)” value in data set [1] (setting [9]) amounted to 119%; in data set [1] (setting [10]) it was 158%; in data set [1] (setting [11]), 98%; in data set [1] (setting [12]), 109%. Also, in data set [1] (1 mg/kg, Intralipid), the “number of 40 day survivors” value amounted to 2.
